Holding throughout (test): NCI-60 cell line screen, 48 h
Test [1] concerns COLO 205 colon.
Test [2] has as its system HOP-62 NSCLC.
In test [3] the test system is HOP-92 NSCLC.
Test [4] deals with KM12 colon.
For test [5], the system named is MDA-MB-231 breast.
In test [6] the test system is NCI-H226 lung.
Test [7] has as its system NCI-H460 lung.
The test system of test [8] is OVCAR-3 ovarian.
In test [9] the test system is SF-539 CNS.
The subject of test [10] is SNB-75 CNS.

We go through 17 compounds from PubChem BioAssay (NCI).

Several values for one entry are separate records, joined by “and”; a condition that tells them apart may be missing. Equal values may be shown once.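 Values below derive from 48-hour exposures of cells grown in 96-well plates, with endpoints linearly interpolated between the two concentrations bracketing the appropriate inhibition level. Abbreviation: GI50, concentration required for 50% inhibition of growth. TGI: total growth inhibition.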

Turning to `NS(=O)(=O)c1c(O)c2ccccc2oc1=O`, the TGI in test [1], in test [2], in [3], in test [4], in test [5] and in test [6] was over 100 µM throughout. For the same compound, the TGI in test [7], in test [8], in test [9] and in test [10] was over 100 µM each time.
As to `CC1=C(C(=O)NNC(=O)C[N+](C)(C)C)CC(C(=O)NNC(=O)C[N+](C)(C)C)=C(C)N1`, the TGI in [1], in [2], in test [3], in test [4], in [5] and in test [6] was over 100 µM each time. Moreover, the TGI in test [7], in test [8] and in test [9] was over 100 µM each time.
For the compound `CCOC(=O)c1c(C)n(-c2ccc(C)cc2)c(=O)c2ccccc2c(=O)c2c(=O)ccc(=O)c1=2`, the TGI is 36.1 µM in test [1]; 46 µM in [2]; 38.2 µM in [3]; 30.3 µM in [4]; over 100 µM in test [5]; 59.7 µM in test [6]. The TGI was found to be 44.9 µM in [7], 29.8 µM in [8], 43.7 µM in test [9] and 81.7 µM in [10].
For `C/C=C(/CCC1NCCc2c1[nH]c1ccccc21)[Si](C)(C)C` (stereo not drawn), the TGI in test [1] is 3.92 µM; in test [2], > 100 µM and 26.7 µM; in test [3], 90.1 µM and 11.9 µM; in test [4], > 100 µM and 12.1 µM; in test [6], > 100 µM and 31.4 µM; in [8] it was > 100 µM and 13.9 µM. Also, the TGI in test [9] is > 100 µM and 13.1 µM; in test [10] it was > 100 µM and 19.9 µM. In test [3], the GI50 is 27 µM and 2.9 µM.
For the compound `NC(Cc1cc(I)c(Oc2ccc(O)c(I)c2)c(I)c1)C(=O)O` (stereo not drawn), the TGI in test [1], in [2], in test [3], in test [4], in [5] and in test [6] was over 100 µM each time. The TGI in test [8] and in [10] was over 100 µM throughout.
Regarding `Fc1ccc2c(c1)SC1=Nc3sc4cc(F)ccc4[n+]3CN12`, the TGI is over 100 µM in test [1]; 56.1 µM in test [2]; 51.6 µM in test [3]; 44.3 µM in test [5]; 56.8 µM in test [6]; over 100 µM in test [7]. Further, the TGI was 36 µM in test [8], 28.3 µM in test [9] and 36.8 µM in [10].
Turning to `NCCCCNOCCCN`, the TGI in [1], in test [3], in test [4], in [6], in [7] and in test [8] was over 100 µM each time. Besides, the TGI in test [9] and in test [10] was over 100 µM in each case.
Take `COC(=O)C1=C(O)C(C(=O)OC)[C@@]2(O)[C@@H](C(=O)OC)[C@H](C)C[C@@H]1[C@@H]2C(=O)OC` (stereo partly drawn): the TGI was over 100 µM in [2]; 58.1 µM in test [4]; 40.3 µM in test [5]; over 100 µM in test [6]; 44.3 µM in test [7]; 40.2 µM in [8]. Also, the TGI in test [9] was found to be 34.1 µM; in test [10], 78.1 µM.
On to `O=c1c(-c2ccccc2)c(SCCCN2CCCCC2)n(-c2ccccc2)c(=S)n1-c1ccccc1`, for which the TGI in test [1] turned out to be 36.8 µM; in test [2], 32.7 µM; in test [3], 30.1 µM; in test [4], 41.6 µM; in test [5] it was 27.9 µM; in [6], 30.4 µM. Also, the TGI in test [7] was determined as 31.5 µM; in [8], 34.3 µM; in test [9], 30.4 µM; in test [10], 29.5 µM.
On to `CC(C)(CCCCC(C)(C)NC1=NCCO1)NC1=NCCO1`, for which the TGI in test [1], in test [2], in test [4], in test [5], in test [6] and in test [7] was over 10 µM each time. Also, the TGI in test [8], in test [9] and in test [10] was over 10 µM in each case.
Regarding `C(=C\c1cc[n+](CCc2ccccc2)cc1)/c1ccccc1`, the TGI is 25.6 µM in test [1]; 40.4 µM in [2]; over 100 µM in test [3]; 18.2 µM in test [4]; 29.1 µM in test [5]; 48.9 µM in [6]. The TGI in test [7] was over 100 µM; in test [8], 26.5 µM; in test [9], 50.5 µM; in test [10] it was over 100 µM.
`O=c1c2ccccc2nc2n1CCc1c-2[nH]c2ccccc12`: the TGI stood at 37.9 µM in [1], 31 µM in test [3] and 40.7 µM in [10].
As to `O=[N+]([O-])c1ccc(N/N=C\c2cc(Br)ccc2O)nc1`, the GI50 was 3.3 µM in test [1]; 1.59 µM in test [2]; 1.62 µM in test [3]; 1.23 µM in test [4]; 0.511 µM in test [5]; 3.11 µM in test [6]. The GI50 in test [7] is 0.636 µM; in test [8], 0.525 µM; in [9], 0.918 µM; in test [10], 1.32 µM. Also, the TGI was over 100 µM in test [1]; 10.3 µM in test [2]; 6.77 µM in [3]; 17.5 µM in [4]; 4.76 µM in test [5]; over 100 µM in [6]. Moreover, the TGI turned out to be 2.72 µM in [7], 2.3 µM in test [8], 4.16 µM in [9] and 3.85 µM in test [10].
Turning to `COC(=O)C(C)NP(=O)(OCc1cccc(Cn2cnc3c(N)ncnc32)c1)Oc1ccccc1` (stereo not drawn), the GI50 in [2] was over 100 µM; in [3], 54.1 µM; in test [4], 68.2 µM; in [5], 51.7 µM; in test [6], over 100 µM; in test [7], over 100 µM. Moreover, the GI50 in test [8] was 43 µM; in test [9], over 100 µM; in [10], over 100 µM. For the same compound, the TGI in [2], in test [3], in [4], in test [5], in test [6] and in test [7] was over 100 µM in each case. Further, the TGI in [8], in test [9] and in test [10] was over 100 µM in each case.
Regarding `NCCc1ccc(S(=O)(=O)O)cc1[N+](=O)[O-]`, the TGI in test [1], in test [2], in test [3], in test [4], in [5] and in test [6] was over 100 µM throughout. The TGI in [7], in [8], in test [9] and in [10] was over 100 µM in each case.
`COc1cc(CCN)c(OC)c(OC)c1`: the TGI in test [1], in [2], in [3], in test [4], in test [5] and in test [7] was over 100 µM throughout. Also, the TGI in test [8] and in test [10] was over 100 µM each time.
Regarding `CC(C)C(=O)Cc1ccc2ccccc2n1`, the TGI in test [1], in [2], in test [3], in test [4], in test [5] and in [6] was over 100 µM throughout. Further, the TGI in test [7], in [8] and in test [10] was over 100 µM each time.
